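These data come from cells grown in 96-well plates and exposed to compound for 48 hours at five concentrations. TGI: concentration producing complete growth inhibition.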
What was measured:
Test in all cases: growth of human tumour cells (NCI), 48 h
A498 renal = tested on: A498 renal
HCC-2998 colon = tested on: HCC-2998 colon
HOP-62 NSCLC = tested on: HOP-62 NSCLC
HOP-92 NSCLC = tested on: HOP-92 NSCLC
M14 melanoma = tested on: M14 melanoma
NCI-H23 lung = tested on: NCI-H23 lung
SN12C renal = tested on: SN12C renal
SNB-19 CNS = tested on: SNB-19 CNS
SNB-75 CNS = tested on: SNB-75 CNS
UACC-62 melanoma = tested on: UACC-62 melanoma
UO-31 renal = tested on: UO-31 renal

## COc1cc(C2SCC(=O)N2c2ccc(Cl)c(Cl)c2)cc(OC)c1OC (stereo unspecified)
A498 renal
  TGI: > 100 µM
HCC-2998 colon
  TGI: > 100 µM
HOP-62 NSCLC
  TGI: > 100 µM
HOP-92 NSCLC
  TGI: > 100 µM
M14 melanoma
  TGI: > 100 µM
NCI-H23 lung
  TGI: > 100 µM
SN12C renal
  TGI: > 100 µM
SNB-19 CNS
  TGI: > 100 µM
SNB-75 CNS
  TGI: > 100 µM
UACC-62 melanoma
  TGI: > 21.9 µM
UO-31 renal
  TGI: > 100 µM

## Cc1c(O)c(C)c2c(C)cn(C(=O)C(C)(C)C)c2c1C
A498 renal
  TGI: 30 µM
HCC-2998 colon
  TGI: 96.6 µM
HOP-62 NSCLC
  TGI: 31.7 µM
HOP-92 NSCLC
  TGI: 17.5 µM
M14 melanoma
  TGI: 30.5 µM
NCI-H23 lung
  TGI: 41.6 µM
SN12C renal
  TGI: 31.8 µM
SNB-19 CNS
  TGI: 65.5 µM
SNB-75 CNS
  TGI: 34.1 µM
UACC-62 melanoma
  TGI: 28.5 µM
UO-31 renal
  TGI: 79.6 µM

## CC(CCC#N)(CCC#N)C(=O)CC(O)(C(F)(F)F)C(F)(F)F
A498 renal
  TGI: 40 µM
HCC-2998 colon
  TGI: 31.3 µM
HOP-62 NSCLC
  TGI: 38.7 µM
HOP-92 NSCLC
  TGI: 15.6 µM
M14 melanoma
  TGI: 4.81 µM
NCI-H23 lung
  TGI: 19.6 µM
SN12C renal
  TGI: 23.5 µM
SNB-19 CNS
  TGI: 53 µM
SNB-75 CNS
  TGI: 34.5 µM
UACC-62 melanoma
  TGI: 19.8 µM
UO-31 renal
  TGI: 13.1 µM

## C[C@@H]1CCC2[C@@H](C)[C@@H](OCCO[C@H]3OC4O[C@@]5(C)CCC6[C@H](C)CCC([C@H]3C)[C@@]46OO5)OC3O[C@@]4(C)CCC1[C@]32OO4 (stereo partly specified)
A498 renal
  TGI: > 77.1 µM
HCC-2998 colon
  TGI: > 100 µM
HOP-62 NSCLC
  TGI: > 100 µM
HOP-92 NSCLC
  TGI: > 57.7 µM
M14 melanoma
  TGI: > 100 µM
NCI-H23 lung
  TGI: 68.9 µM
SN12C renal
  TGI: > 100 µM
SNB-19 CNS
  TGI: > 100 µM
SNB-75 CNS
  TGI: > 100 µM
UACC-62 melanoma
  TGI: > 100 µM
UO-31 renal
  TGI: > 100 µM

## CC(C)(C)c1cc(C(=O)/C=C/C=C/c2ccccc2)cc(C(C)(C)C)c1O
A498 renal
  TGI: > 80.7 µM
HCC-2998 colon
  TGI: 28.2 µM
HOP-62 NSCLC
  TGI: > 100 µM
HOP-92 NSCLC
  TGI: > 100 µM
M14 melanoma
  TGI: 41.4 µM
NCI-H23 lung
  TGI: > 100 µM
SN12C renal
  TGI: 77.3 µM
SNB-19 CNS
  TGI: 77.8 µM
SNB-75 CNS
  TGI: 67.2 µM
UACC-62 melanoma
  TGI: > 71.4 µM
UO-31 renal
  TGI: > 77.3 µM

## S=c1[nH]n2c(COc3cccc(OCc4nnc5sc(=S)[nH]n45)c3)nnc2s1
A498 renal
  TGI: > 100 µM
HCC-2998 colon
  TGI: > 100 µM
HOP-62 NSCLC
  TGI: > 100 µM
HOP-92 NSCLC
  TGI: > 100 µM
M14 melanoma
  TGI: > 100 µM
NCI-H23 lung
  TGI: > 100 µM
SN12C renal
  TGI: > 100 µM
SNB-19 CNS
  TGI: > 100 µM
SNB-75 CNS
  TGI: > 100 µM
UACC-62 melanoma
  TGI: > 100 µM
UO-31 renal
  TGI: > 100 µM

Source: PubChem BioAssay (NCI)
